Measured values: US4560684A, “1,4-Benzodiazepine derivatives” (priority 1982, dated 1985)
Where a name gives a salt, the structure may show the parent alone. Read-outs that look alike come from different tables or passages of the source.

What was measured:
[1] = tested on: pentylenetetrazole (PTZ) induced convulsion; assay: Antagonism to the pentylenetetrazole (PTZ) induced convulsion; type: in vivo, ddy male mice; conditions: Mus musculus, read-out: Anti-PTZ convulsion (ED50)
Method: (§1) Each compound was used in the form of 0.5 to 1% suspension made by mixing
(§2) with its half volume of arabic gum.
***Antagonism to the pentylenetetrazole (PTZ) induced convulsion: To
several groups of ddy male mice in 4 to 5 weeks age, each group consistin
of 8 mice was orally administered the test compound. Half an hour later,
125 mg/kg of pentylenetetrazole was subcutaneously administered, and the
number of mice surviving during 2 hours was observed. The ED50 value
was obtained from the survival number according to the probit method.

[2] = tested on: tetrabenazine (TBZ) induced ptosis; assay: Antagonism to the tetrabenazine (TBZ) induced ptosis; type: in vivo, DS male mice; conditions: Mus musculus, sc, read-out: Anti-TBZ ptosis (ED50)
Method: as §1, §2
**Antagonism to the tetrabenazine (TBZ) induced ptosis: To several groups
of DS male mice in 4 to 5 weeks age, each group consisting of 5 mice was
subcutaneously administered the test compound. Half an hour later, 50
mg/kg of tetrabenazine was subcutaneously administered. Degree of the
ptosis in 1 hour was scored, and the result was subjected to the rigid
conversion. The ED50 value was obtained from the regression

[3] = ddy male mice, oral, half an hour before pentylenetetrazole 125 mg/kg s.c., survival during 2 hours
[4] = DS male mice, subcutaneous, half an hour before tetrabenazine 50 mg/kg s.c., ptosis scored in 1 hour

SMILES	ED50 [1, 3] [mg/kg]	ED50 [2, 4] [mg/kg]	ED50 ([1]; po, 2 h) [mg/kg]	ED50 ([2]; 1 h) [mg/kg]
O=C1CN=C(c2ccccc2F)c2cc(Cl)ccc2N1C1CCNCC1 [Compound 23, 7-chloro-1,3-dihydro-5-(2-fluorophenyl)-1-(4-piperidinyl)-2H-1,4-benzodiazepin-2-one]	8.52	0.075	–	–
CN1CCC(N2C(=O)CN=C(c3ccccc3F)c3ccccc32)CC1 [Compound 8, 1-(1-methyl-4-piperidinyl)-1,3-dihydro-5-(2-fluorophenyl)-2H-1,4-benzdiazepin-2-one]	–	–	> 10	0.205
CN1CCC(N2C(=O)CN=C(c3ccccc3)c3ccccc32)CC1 [Compound 6]	–	–	> 20	0.26
CN1CCC(N2C(=O)CN=C(c3ccccc3F)c3cc(Cl)ccc32)CC1 [Compound 10]	–	–	0.77	1.3
O=C1CN=C(c2ccccc2)c2ccccc2N1C1CCNCC1 [Compound 26, 1-(4-piperidinyl)-1,3-dihydro-5-phenyl-2H-1,4-benzodiazepin-1-one hydrobromide]	> 10	0.063	–	–
Cc1ccc2c(c1)C(c1ccccc1F)=NCC(=O)N2C1CCN(C)CC1 [Compound 15]	–	–	> 10	0.839
CN(C)CCCN1c2ccccc2CCc2ccccc21 [imipramine, reference compound]	–	–	> 10	0.799
